From patent US20200246316A1, “METHODS OF TREATING POST-SURGICAL PAIN WITH A THIAZOLINE ANTI-HYPERALGESIC AGENT” (CERSCI THERAPEUTICS, INC., priority 2019, published 2020)
Several values for one entry are separate records, joined by “and”; a condition that tells them apart may be missing. Equal values may be shown once. Entries after “also recorded” stand apart in the source; their conditions may differ. Where a name gives a salt, the structure may show the parent alone. Read-outs that look alike come from different tables or passages of the source.

Key:
[1] = Solubility in organic/aqueous solvents; assay type: physicochemical
Description: Polymorphic screening of crystalline Compound 1 was performed using 15 organic/aqueous solvent systems, including: n-heptane, methanol, toluene, acetone, tetrahydrofuran, iso-propanol, ethanol, ethyl acetate, iso-propyl acetate, tert-butylmethyl ether, […], 10% water/90% tetrahydrofuran, tert-butyl alcohol, water, and 1:1 tert-butyl alcohol:water.

[2] = system: established incision-induced mechanical hyperalgesia; assay: Brennan incisional pain model, treatment paradigm; assay type: in vivo, rat
Description: Two incisional pain models were used to assess Compound 1 effects on hyperalgesia. The first model is referred to as the Brennan model in which, under anesthesia, a 1 cm longitudinal incision to the skin and underlying fascia of a rat hindpaw is made. The second is a variation but is a more invasive procedure in which the skin and muscle are spread apart using forceps which creates a longer-lasting hypersensitivity.
Using the Brennan protocol and a treatment paradigm in rat, Compound 1 (10 and 30 mg/kg PO), morphine (3 mg/kg SC) or vehicle were administered daily at 24 h post-incision, and again at 48 and 72 h post-incision. Mechanical thresholds were obtained at 1 h and 2 h post-dose in all cohorts on all days.

[3] = system: STZ-induced mechanical allodynia; assay: Streptozotocin (STZ) diabetic neuropathy model; assay type: in vivo, mice; settings: FIG. 14
Description: Streptozotocin (STZ) destroys insulin-producing cells and generates a diabetic phenotype in mice. Animals were dosed with STZ on day −7. By day 0, animals are hyperglycemic and hyperalgesic (day 0 BL).

[4] = Effect of food on oral bioavailability in rats; assay type: in vivo, rat
Description: The effect of food on oral bioavailability was determined.

[5] = Dog pharmacokinetics after single PO (10 mg/kg) and IV (3 mg/kg) dose; assay type: in vivo; settings: for bioavailability: 10 mg/kg PO vs 3 mg/kg IV
Description: The objective of the first single dose non-GLP study in dogs was to determine the pharmacokinetics and bioavailability of Compound 1 after a single oral (gavage) or single intravenous (IV) dose in dogs. The test article formulation was administered to three male dogs orally via gavage at a dose level of 10 mg/kg (dosing volume of 2 mL/kg body weight). Following a wash-out period of a minimum of three days, the same three dogs were administered the test article formulation via an IV bolus push over approximately 1-2 minutes at a dose level of 3 mg/kg (dosing volume of 0.5 mL/kg). The vehicle for oral gavage dosing was 0.5% HPMC; the vehicle for IV injection was sterile phosphate buffered saline (PBS; pH 7.4). […] Animals were returned to quarantine after the last blood collection.
After IV administration at 3 mg/kg, the test article was quantifiable up to the 4-hour time point for all animals and tmax was about 5 minutes. Since the test article was not quantifiable at the 6-hour and subsequent time points for IV administration, […] and bioavailability could not be calculated.

[6] = Red Blood Cell (RBC) partitioning; assay type: in vitro ADME; settings: 60 min post-exposure
Description: The compound distributed readily in tissues with a steady-state volume of distribution of 1.7 L/kg.

[7] = Stability in plasma; assay type: in vitro ADME
Description: Upon administration, Compound 1 is stable in both plasma and hepatocytes from rat, dog and human.

[8] = Protein binding across species; assay type: in vitro ADME
[9] = biological target: T1, OATP1B1 (Homo sapiens, UniProt Q9Y6L6); assay: Inhibition of uptake (SLC) transporters; assay type: in vitro ADME
T1 construct: expressed in transfected cells; host or cells: HEK293 cells

[10] = biological target: T2, OATP1B3 (Homo sapiens, UniProt Q9NPD5); assay: Inhibition of uptake (SLC) transporters; assay type: in vitro ADME
T2 construct: expressed in transfected cells; host or cells: HEK293 cells

[11] = biological target: T3, OAT1 (Homo sapiens, UniProt Q4U2R8); assay: Inhibition of uptake (SLC) transporters; assay type: in vitro ADME
T3 construct: expressed in transfected cells; host or cells: HEK293 cells

[12] = biological target: T4, OAT3 (Homo sapiens, UniProt Q8TCC7); assay: Inhibition of uptake (SLC) transporters; assay type: in vitro ADME
T4 construct: expressed in transfected cells; host or cells: HEK293 cells

[13] = Rat pharmacokinetics after single PO dose; settings: for Compound 1 Concentration in rat plasma: 100 mg/kg single PO, individual animals
Description: In both assays, a deuterated (Compound 1-d4) internal standard was used.
The objective of this non-GLP study was to determine the pharmacokinetics of Compound 1 after a single oral (gavage) dose in rats, and to determine if Compound 1 undergoes epimerization in the rat. Compound 1 was administered to CD® IGS [Crl:CD(SD)] (Sprague Dawley) rats (5/sex/group) as a single oral gavage dose of 100 mg/kg in a vehicle of 0.5% aqueous HPMC. Rats were dosed at a dose volume of 10 mL/kg body weight.

[14] = Rat single dose metabolism/excretion study (urine and feces)
[15] = HEK293 cells, probe [3H]-estradiol-17β-glucuronide (0.05 μM), 0.3-600 μM tested
[16] = female, Sprague Dawley (CD IGS, Crl:CD(SD)), rat, plasma, po, 100 mg/kg
[17] = male, Sprague Dawley, rat, plasma, po, 100 mg/kg

T4 sequence (Q8TCC7 whole entry): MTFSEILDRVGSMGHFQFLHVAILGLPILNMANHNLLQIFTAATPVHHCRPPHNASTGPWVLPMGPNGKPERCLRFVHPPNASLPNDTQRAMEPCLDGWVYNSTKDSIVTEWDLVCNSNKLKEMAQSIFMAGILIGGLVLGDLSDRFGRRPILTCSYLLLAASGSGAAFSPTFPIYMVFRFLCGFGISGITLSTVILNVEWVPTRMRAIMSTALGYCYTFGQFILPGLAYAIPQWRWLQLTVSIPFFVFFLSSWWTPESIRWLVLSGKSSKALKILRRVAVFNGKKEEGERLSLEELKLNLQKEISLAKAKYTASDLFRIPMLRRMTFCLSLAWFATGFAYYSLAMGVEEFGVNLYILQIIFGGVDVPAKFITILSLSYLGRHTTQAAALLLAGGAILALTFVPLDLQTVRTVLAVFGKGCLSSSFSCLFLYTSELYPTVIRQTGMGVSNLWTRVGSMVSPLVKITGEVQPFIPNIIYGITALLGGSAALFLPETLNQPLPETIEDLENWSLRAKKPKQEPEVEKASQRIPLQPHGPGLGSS
T3 sequence (Q4U2R8 whole entry): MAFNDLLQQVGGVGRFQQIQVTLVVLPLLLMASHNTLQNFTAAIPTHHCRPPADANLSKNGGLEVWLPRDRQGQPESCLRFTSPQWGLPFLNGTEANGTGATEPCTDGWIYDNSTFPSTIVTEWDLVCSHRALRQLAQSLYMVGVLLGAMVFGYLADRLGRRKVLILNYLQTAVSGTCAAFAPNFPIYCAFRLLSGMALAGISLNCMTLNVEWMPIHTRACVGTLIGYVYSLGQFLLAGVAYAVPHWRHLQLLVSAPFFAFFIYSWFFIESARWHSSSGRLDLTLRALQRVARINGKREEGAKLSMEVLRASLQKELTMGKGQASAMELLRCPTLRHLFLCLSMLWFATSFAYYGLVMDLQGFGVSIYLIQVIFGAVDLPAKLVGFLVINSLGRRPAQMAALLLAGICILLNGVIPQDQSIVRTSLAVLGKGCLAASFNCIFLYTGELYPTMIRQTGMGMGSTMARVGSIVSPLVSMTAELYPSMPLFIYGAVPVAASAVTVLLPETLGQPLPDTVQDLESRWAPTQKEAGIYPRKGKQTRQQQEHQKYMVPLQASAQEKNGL
T1 sequence (Q9Y6L6 whole entry): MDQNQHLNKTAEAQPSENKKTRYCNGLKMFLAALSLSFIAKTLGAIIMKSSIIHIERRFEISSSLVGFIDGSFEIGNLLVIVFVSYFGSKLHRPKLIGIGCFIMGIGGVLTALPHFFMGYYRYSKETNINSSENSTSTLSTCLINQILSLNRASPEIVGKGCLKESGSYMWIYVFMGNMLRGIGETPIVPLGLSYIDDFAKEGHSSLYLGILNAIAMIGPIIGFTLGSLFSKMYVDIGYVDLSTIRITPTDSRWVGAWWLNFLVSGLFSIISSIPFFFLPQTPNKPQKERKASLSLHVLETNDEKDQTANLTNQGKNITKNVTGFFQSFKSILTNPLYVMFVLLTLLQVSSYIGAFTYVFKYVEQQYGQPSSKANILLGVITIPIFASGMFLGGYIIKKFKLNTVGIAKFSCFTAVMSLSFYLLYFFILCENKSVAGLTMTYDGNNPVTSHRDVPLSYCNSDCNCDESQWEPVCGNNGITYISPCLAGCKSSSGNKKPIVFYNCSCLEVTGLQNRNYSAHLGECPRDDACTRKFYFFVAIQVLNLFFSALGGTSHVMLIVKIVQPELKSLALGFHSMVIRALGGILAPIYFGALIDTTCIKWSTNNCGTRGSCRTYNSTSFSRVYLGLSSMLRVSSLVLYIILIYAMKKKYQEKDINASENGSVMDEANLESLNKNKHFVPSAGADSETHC
T2 sequence (Q9NPD5 whole entry): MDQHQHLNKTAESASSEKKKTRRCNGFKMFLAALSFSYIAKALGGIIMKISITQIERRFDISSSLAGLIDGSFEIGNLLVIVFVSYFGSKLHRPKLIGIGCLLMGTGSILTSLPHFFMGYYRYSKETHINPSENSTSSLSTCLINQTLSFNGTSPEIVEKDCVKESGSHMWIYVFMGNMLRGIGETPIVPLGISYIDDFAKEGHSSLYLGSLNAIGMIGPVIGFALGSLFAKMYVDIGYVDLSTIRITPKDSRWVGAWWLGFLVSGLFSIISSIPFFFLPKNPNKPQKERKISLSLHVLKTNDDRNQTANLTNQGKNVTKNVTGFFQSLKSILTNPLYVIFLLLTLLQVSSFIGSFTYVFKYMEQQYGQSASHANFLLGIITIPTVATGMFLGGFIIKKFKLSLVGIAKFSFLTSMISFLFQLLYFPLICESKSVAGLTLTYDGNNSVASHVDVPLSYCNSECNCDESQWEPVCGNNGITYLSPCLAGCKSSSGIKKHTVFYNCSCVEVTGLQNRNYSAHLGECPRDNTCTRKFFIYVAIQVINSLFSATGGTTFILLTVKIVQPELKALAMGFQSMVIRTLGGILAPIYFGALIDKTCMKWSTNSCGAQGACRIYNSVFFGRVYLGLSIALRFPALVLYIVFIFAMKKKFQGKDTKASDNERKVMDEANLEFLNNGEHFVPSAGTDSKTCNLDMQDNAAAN

CC1(C)SC(Nc2ccccc2O)=N[C@@H]1C(=O)O [Compound 1, (R)-2-(2-hydroxyphenylamino)-5,5-dimethyl-4,5-dihydrothiazole-4-carboxylic acid mono-hydrochloride]
solubility ([1]; 10% water/tetrahydrofuran): sparingly soluble | solubility ([1]; 10% water:iso-propyl acetate): sparingly soluble | solubility ([1]; acetone): less than sparingly soluble | solubility ([1]; ethanol): sparingly soluble | solubility ([1]; ethyl acetate): less than sparingly soluble | solubility ([1]; iso-propanol): sparingly soluble | solubility ([1]; iso-propyl acetate): less than sparingly soluble | solubility ([1]; methanol): freely soluble | solubility ([1]; n-heptane): less than sparingly soluble | solubility ([1]; tert-butyl alcohol): less than sparingly soluble | solubility ([1]; tert-butyl alcohol:water (1:1)): freely soluble | solubility ([1]; tert-butyl methyl ether): less than sparingly soluble | solubility ([1]; tetrahydrofuran): less than sparingly soluble | solubility ([1]; toluene): less than sparingly soluble | solubility ([1]; water): sparingly soluble | effect on established mechanical hyperalgesia (overall) ([2]; Compound 1 10 and 30 mg/kg PO daily, morphine 3 mg/kg SC, FIG. 12, mono-hydrochloride): prevented/reversed hyperalgesia completely; also recorded: reversed mechanical hyperalgesia | reversal of hyperalgesia ([2]; Day 1, 2-h time point, low-dose (10 mg/kg PO)): partial reversal | mechanical threshold ([2]; Day 1, 1 h post-dose, high-dose (30 mg/kg PO)): 26 g | mechanical threshold ([2]; Day 1, 2 h post-dose, high-dose (30 mg/kg PO)): 27 g | reversal of hyperalgesia ([2]; Day 2, 1 h and 2 h post-dosing, both 10 and 30 mg/kg PO cohorts): full reversal of hyperalgesia | mechanical threshold ([2]; Day 2 prior to dosing, high-dose (30 mg/kg PO)): 29 g | mechanical threshold ([2]; Day 2 prior to dosing, low-dose (10 mg/kg PO)): 26 g | hyperalgesia ([2]; Day 3 prior to dosing): did not show hyperalgesia | STZ-induced mechanical allodynia [3]: blocks STZ-induced mechanical allodynia | peak plasma concentrations in fasted compared to fed rats ([4]; 10 mg/kg): significantly increased | difference in pharmacokinetic properties fed vs fasted ([4]; 100 mg/kg oral): No statistically significant differences | oral absorption ([4]; fed and fasted rats, 10 and 100 mg/kg): well and rapidly absorbed | median t1-2 ([5]; 10 mg/kg PO): 1.4 h | epimerization (chiral column) ([5]; dog plasma): did not provide any evidence of epimerization | bioavailability ([5]; male, dog, plasma, oral, 10 mg/kg, read-out: mean oral bioavailability): 72% | Tmax ([5]; male, dog, plasma, 3 mg/kg IV): ~5 min | Cmax ([5]; male, dog, plasma, 10 mg/kg PO): 12000 ng/mL | Tmax ([5]; male, dog, plasma, 10 mg/kg PO): ~60 min | bioavailability ([5]; male, dog, plasma, read-out: oral bioavailability range): 56 to 91% | KRBC/PL ([6]; dog): < 0.25 | KRBC/PL ([6]; human): < 0.25 | KRBC/PL ([6]; monkey): < 0.25 | KRBC/PL ([6]; rat): < 0.25 | stability in plasma ([7]; dog): stable | stability in plasma ([7]; human): stable | stability in plasma ([7]; rat): stable | protein binding [8]: moderately protein-bound | IC50 [9, 15]: > 600 µM | transporter inhibition ([9]; OATP1B1): does not inhibit | IC50 [10, 15]: > 600 µM | transporter inhibition ([10]; OATP1B3): does not inhibit | IC50 ([11]; HEK293 cells, probe [3H]-p-aminohippurate (1 μM), 0.3-600 μM tested): > 600 µM | transporter inhibition ([11]; OAT1): does not inhibit | IC50 ([12]; HEK293 cells, probe [3H]-estrone-3-sulfate (0.05 μM), 0.3-600 μM tested): 174 µM | transporter inhibition ([12]; OAT3): weakly inhibits | Compound 1 Concentration in rat plasma ([13]; Female, 0.5 h post-dose, mono-hydrochloride, 100 mg/kg): 36.4 µg/mL and 44.7 µg/mL and 43.2 µg/mL and 45.4 µg/mL | Compound 1 Concentration in rat plasma ([13]; Female, 1 h post-dose, mono-hydrochloride, 100 mg/kg): 50.1 µg/mL and 63.6 µg/mL and 63.2 µg/mL and 69.7 µg/mL | Compound 1 Concentration in rat plasma ([13]; Female, 2 h post-dose, mono-hydrochloride, 100 mg/kg): 63.1 µg/mL and 58.9 µg/mL and 60.1 µg/mL and 72.8 µg/mL | Compound 1 Concentration in rat plasma ([13]; Female, 4 h post-dose, mono-hydrochloride, 100 mg/kg): 14.4 μg/mL (2×) and 31.5 μg/mL and 32.4 μg/mL and 20.4 μg/mL | Compound 1 Concentration in rat plasma ([13]; Female, 8 h post-dose, mono-hydrochloride, 100 mg/kg): 1.78 µg/mL and 1.80 µg/mL and 4.14 µg/mL and 4.21 µg/mL and 2.23 µg/mL | Compound 1 Concentration in rat plasma ([13]; Female, 24 h post-dose, mono-hydrochloride, 100 mg/kg): 0.250 µg/mL and 0.240 µg/mL and 0.489 µg/mL and 0.482 µg/mL and 0.428 µg/mL | Compound 1 Concentration in rat plasma ([13]; Male, 0.5 h post-dose, mono-hydrochloride, 100 mg/kg): 17.5 µg/mL and 14.0 µg/mL and 11.4 µg/mL and 10.8 µg/mL | Compound 1 Concentration in rat plasma ([13]; Male, 1 h post-dose, mono-hydrochloride, 100 mg/kg): 14.3 µg/mL and 22.6 µg/mL and 14.8 µg/mL and 11.0 µg/mL and 11.8 µg/mL | Compound 1 Concentration in rat plasma ([13]; Male, 2 h post-dose, mono-hydrochloride, 100 mg/kg): 15.7 µg/mL and 14.0 µg/mL and 14.9 µg/mL and 10.7 µg/mL | Compound 1 Concentration in rat plasma ([13]; Male, 4 h post-dose, mono-hydrochloride, 100 mg/kg): 4.82 µg/mL and 13.9 µg/mL and 1.56 µg/mL and 6.65 µg/mL and 3.81 µg/mL | Compound 1 Concentration in rat plasma ([13]; Male, 8 h post-dose, mono-hydrochloride, 100 mg/kg): 2.81 µg/mL and 1.57 µg/mL and 1.53 µg/mL and 3.05 µg/mL | Compound 1 Concentration in rat plasma ([13]; Male, 24 h post-dose, mono-hydrochloride, 100 mg/kg): 0.157 μg/mL and BQL (3×) and 1.04 μg/mL | concentration at 0.5 h [13, 16]: 40800 ng/mL | concentration at 2 h [13, 16]: 62600 ng/mL | concentration at 8 h [13, 16]: 2830 ng/mL | concentration at 24 h [13, 16]: 378 ng/mL | concentration at 0.5 h [13, 17]: 13500 ng/mL | concentration at 4 h [13, 17]: 6150 ng/mL | concentration at 8 h [13, 17]: 2110 ng/mL | concentration at 24 h [13, 17]: 599 ng/mL | epimerization in vivo (chiral methods) ([13]; rat plasma, mono-hydrochloride): no epimerization; also recorded: did not provide any evidence of epimerization | administered compound recovered unchanged [14]: 5-15%
